Article PMC12058896, “Potent antimicrobial activity of hydrogel loaded with the antimicrobial peptide, D-Bac8c^2,5 Leu, against monospecies and polymicrobial biofilms of Staphylococcus aureus and Pseudomonas aeruginosa” (Frontiers in Microbiology, 2025)
Values after ≈ are worked out from the molar mass of the structure shown. Non-standard residues stand in square brackets, D forms with d. Residues, ends and D or L forms follow the SMILES beside them.

Legend:
HaCaT = assay: MTT cell viability; type: cell-based, human; settings: 24 h, 37°C, 5% CO2, average of three independent experiments
[1] = test system: tested strains (SH1000, BH48, USA300, BH1CC, PAO1); assay: In vitro serial passage, induction of resistance; type: cell-based, S. aureus and P. aeruginosa; settings: subculturing for 14 days at sub-MIC concentrations
Protocol: This assay was performed as outlined previously with some modifications ([Ge et al., 1999]; [Mohan et al., 2019]). Briefly, the in vitro serial passage study involved exposing bacteria diluted to 10^4 CFU/mL in cationic adjusted Muller Hinton Broth (Merck, Ireland) to D-Bac8c^2,5 Leu at one-half of the previously established bactericidal concentration. After 90 min of incubation at 37°C, 10 μL was plated in triplicate on MH agar and incubated again overnight. Post-incubation, surviving colonies were harvested, diluted in PBS and re-adjusted to 1 × 10^4 CFU/mL before repeated treatment with the sub-bactericidal concentration. This concentration was determined prior to the initiation of the study and after the 4th, 7th, 11th, and 14th passages. If the concentration after these passages was greater than the original determinate, then at passages […], the amount of peptide used during the bacterial challenge was increased. This was continued over a 14-day course. This assay was performed in independent duplicates.

BH48 = assay: microbe, parasite or virus in culture; type: cell-based, Staphylococcus aureus; settings: 18 h
Protocol: (§1) Strains used in the study were isolates of methicillin-resistant Staphylococcus aureus (MRSA); USA300 LAC, BH1CC ([O’Neill et al., 2007]), methicillin-sensitive S. aureus (MSSA); SH1000 ([Horsburgh et al., 2002]) and BH48 ([O’Neill et al., 2007]); and Pseudomonas aeruginosa PAO1 (ATCC […]). Clinical isolates were obtained from a previous collection of isolates of infected wounds. Bacteria were grown aerobically at 37°C with shaking at 200 rpm in Brain Heart Infusion (BHI, Oxoid, Ireland). Selective media, Mannitol Salt Agar (SLS, Ireland) and MacConkey agar (SLS, Ireland), for re-isolation of bacterial strains from mixed species biofilms were used. Bolton Broth (Fannin, Ireland) supplemented with 50% bovine heparin plasma (TebuBio, UK), and 5% laked horse blood (Sigma-Aldrich, Ireland) was used to mimic in vivo conditions for static antibiofilm testing. For dynamic biofilm growth Simulated Wound Fluid (SWF) prepared as described previously with slight modification, 3% v/v fetal bovine serum in maximum recovery diluent (Merck, Ireland) was used ([Barbour et al., 2016]).
(§2) Minimum inhibitory concentration (MIC) was determined aerobically using the broth microdilution assay as recommended by the Clinical and Laboratory Standards Institute (CLSI) ([CLSI, 2018]). Briefly, 2-fold serial dilutions of the antimicrobial peptides of interest and conventional antibiotics were prepared in Mueller-Hinton broth (MHB) (Merck, Ireland) in a 96-well round bottom polypropylene plate (ThermoFisher, Ireland). Diluted bacterial suspensions in sterile PBS (Sigma, Ireland) were added to each well resulting in a final cell density of approximately 10^5 colony forming units (CFU)/mL. Microplates were incubated statically for 18 h at 37°C. In each assay, inoculated medium without antimicrobials and uninoculated medium served as growth and sterility controls, respectively. Conventional antibiotics, gentamicin (Merck, Ireland) and mupirocin (SLS, UK), were tested as comparator antimicrobials. The MIC value was defined as the lowest antimicrobial concentration showing no visible growth relative to positive (no antimicrobial agent) and negative controls (BHI alone). Experiments were conducted in triplicate, and independent replicates were performed three times to yield n = 3.

BH1CC = assay: microbe, parasite or virus in culture; type: cell-based, Staphylococcus aureus; settings: 18 h
Protocol: as §1, §2

USA300 = assay: microbe, parasite or virus in culture; type: cell-based, Staphylococcus aureus; settings: USA300, 18 h
Protocol: as §1, §2

SH1000 = assay: microbe, parasite or virus in culture; type: cell-based, Staphylococcus aureus; settings: SH1000, 18 h
Protocol: as §1, §2

THP-1 = type: cell-based, human; settings: 24 h
Protocol: Sigma-Aldrich, Ireland). […] At 90% confluence, cells were centrifuged and diluted to a 1:5 ratio with complete RPMI. THP-1 cells were seeded in a 96 well plate at a density of 1 × 10^5 cells/mL with increasing concentrations of D-Bac8c^2,5 Leu. Cells were incubated for 24 h at 37°C with 5% CO2, 95% humidity. […] The absorbance was measured at 595 nm in a microplate spectrophotometer. Cell viability was calculated as a percentage of a control treated with PBS. Two technical replicates were performed each day on three independent days.

[2] = test system: monospecies and polymicrobial biofilms of S. aureus and P. aeruginosa; assay: Duckworth biofilm flow device (dynamic biofilm); type: cell-based; settings: biofilms grown 1 and 5 days under shear flow in SWF; 256 μg/mL for 6 h
Protocol: The Duckworth biofilm flow device was set-up and run following the method described by [Duckworth et al. (2018)]. Twelve disks of agar at 1.5% (w/v) concentration were cut using a 10 mm French press punch and placed into designated wells in the flow device. Cellulose filter (13 mm, 0.22 μm, Merck Millipore, Ireland) was placed on top of each agar disk, and was inoculated with 10 μL of the bacterial inoculum. The device was placed in an incubator at 37°C while a continuous flow of SWF was pumped into the device at a flow rate of 0.322 mL/min for 24 h or 5 days using a peristaltic pump (Supplementary Figure S2). Subsequently, topical treatment with D-Bac8c^2,5 Leu was introduced and allowed to run for a further 6 h. The biofilm formed on the cellulose filters were collected and suspended in 1 mL PBS. Colony counting was performed as described above. The Duckworth biofilm flow device was prepared and run as described above with slight modification. A solution of agarose dissolved in SWF (0.3 g in 20 mL), mixed with bacterial cultures at 10^8 CFU/mL and then supplemented with 3% FBS and 0.15% collagen (Merck, Ireland) was allowed to solidify at room temperature and then 12 disks of that was cut using a 10 mm French press punch. The disks were then placed into designated wells and experiments run as previously described. […]

Compound: CC(C)C[C@@H](NC(=O)[C@H](N)CCCNC(=N)N)C(=O)N[C@H](Cc1c[nH]c2ccccc12)C(=O)N[C@@H](C(=O)N[C@H](CC(C)C)C(=O)N[C@H](Cc1c[nH]c2ccccc12)C(=O)N[C@H](CCCNC(=N)N)C(=O)N[C@H](CCCNC(=N)N)C(N)=O)C(C)C [D-Bac8c^2,5 Leu] (H-[dR][dL][dW][dV][dL][dW][dR][dR]-NH2; N-terminus assumed)
- IC50 (50% cell viability), MTT (HaCaT): 426.7 µg/mL (≈ 361 µM)
- development of resistance (change in MIC) [1]: not accompanied by increased resistance
- MIC (BH48): 8 µg/mL (≈ 6.76 µM)
- MIC (BH1CC): 8 µg/mL (≈ 6.76 µM)
- MIC (USA300): 8 µg/mL (≈ 6.76 µM)
- MIC (SH1000): 8 µg/mL (≈ 6.76 µM)
- IC50 (50% cell viability), MTT (THP-1): 331.7 µg/mL (≈ 280 µM)
- reduction in viability [2]: ≤ 3 log
